# Measurements as given in patent publication US11207331B2, “Agents, compositions and methods for enhancing neurological function” (University of Southern California, priority 2007, dated 2021).
# “Also recorded” adds a separate entry of the source.
# What was measured:
# SVZ from 3×TgAD mice = assay: Unbiased stereology of BrdU-positive cells in subventricular zone; type: in vivo, mouse; conditions: 10 mg/kg
# [1] = system: mouse dentate gyrus subgranular zone (SGZ); assay: Unbiased stereology of BrdU-positive cells in dentate gyrus subgranular zone; type: in vivo; conditions: for cell proliferation (normal BrdU+ cells) / pyknotic BrdU+ cell count after THP treatment: 24 hr; for pyknotic BrdU+ cell count after THP treatment: 6-months, 10 mg/kg s.c.
# Protocol: Mice of each genotype and age received a subcutaneous (s.c.) injection of THP at a concentration of 10 mg/kg body weight (BW), an optimal dose of THP-[…] based on our previous studies. One hour after THP injection, mice were intraperitoneally (i.p.) injected with 100 mg/kg BW bromodeoxyuridine (BrdU). Two experimental paradigms were used: 1) THP treatment for behavior and cell survival assessment, in which animals received a single shot of THP/vehicle, followed by a 7-day neurogenesis and migration phase, followed by a 5-day trace-conditioning test followed 9 days later by a 1-day memory test, and scarified 21 days after a single THP injection at which time FACS analysis of BrdU positive cells was performed to assess cell survival; 2).
# Acute THP treatment for cell proliferation assessment, in which animals received a single injection of THP/vehicle and were sacrificed 24 hr later followed by quantitative unbiased stereology of BrdU positive cells.
# Mice were sacrificed 24 h after THP administration for cell proliferation assessment or at the end of memory test for cell survival assessment. On the day of sacrifice mice were deeply anesthetized with a combination of ketamine (100 mg/kg) and xylazine (10 mg/kg), and perfused with PBS. Brains were dissected into two hemispheres, and one hemisphere was fixed immediately in cold 4% paraformaldehyde and was used for either stereological analysis (cell proliferation) or FACS analysis (cell survival).
# The fixed hemispheres from cell proliferation assessment experiment were sectioned into a series of 40 μm coronal sections and every sixth section in the series was processed for BrdU histolabeling by NeuroScience Associates (Knoxville, Tenn.). Prior to labeling, all slides were coded and the codes were not broken until analyses were completed. The number of BrdU labeled cells was determined by unbiased stereology (optical dissector). Systematic samplings of unbiased counting frames of 50 μm on a side with a 200 μm matrix spacing were produced using a semiautomatic stereology system (Zeiss Axiovert 200M fluorescent microscope as part of the 3iMarianas digital microscopy and a 60×SPlan apochromat oil objective (1.4 numerical aperture). Positive cells that intersected the uppermost focal (exclusion) plane and those that intersected the exclusion boundaries of the unbiased sampling frame were excluded from analysis. Cells that met analysis criteria through a 20 μm axial distance were counted according to the optical dissector principle. The granule cell layer reference volume was determined by summing the traced SGZ, granule cell areas for each section multiplied by the distance between sections sampled. The mean granule cell number per dissector volume was multiplied by the reference volume to estimate the total granule cell number. The stereologically determined number of BrdU-positive cells was related to the granule cell layer sectional volume and multiplied by the reference volume to estimate the total number of BrdU-positive cells.
# Total BrdU labeled cells were quantified for 3, 6, 9, and 12 months non-Tg and 3×TgAD male mice. The serial brain sections were collected to analyze the effects of THP on BrdU incorporation by unbiased stereological analysis. Data are represented as mean±SEM (n≥4 in each group). […] PCNA, an S-phase cell cycle marker, was increased in THP compared to vehicle control in 3×TgAD mice in three month (FIG. 12B) and six month (FIG. 12C) mice as shown by immunoblot.
# To decipher the THP effect in neurogenesis, cell proliferation assessment experiments were conducted. Following animal sacrifice and brain section staining, unbiased stereology was conducted in both non-Tg and 3×TgAD mice at three different ages.
# [2] = system: human neural progenitor cells (hNPC); assay: Proliferation and phenotype of human neural progenitor cells (hNPC); type: cell-based
# Protocol: To determine the impact of THP on hNPC cell proliferation, a dose response (pM-nM) experiment was performed. Results of these analyses indicate:
# To determine the impact of THP on the stability of hNPC phenotype, hNPCs were double labeled with BrdU, Tuj1 and MAP2, or GFAP.
# To determine whether the same mechanisms of THP-induced proliferation in rodent derived NPCs could be generalized to humans, we determined the requirement of the GABAAR by antagonizing the GABAAR with bicuculline followed by assessment of THP-induced hNPC cell proliferation.
# phosphorylated tau = assay: Phospho-tau immunoreactivity; type: in vivo, mouse
# CNPase = CNPase expression (myelination marker); type: in vivo, mouse
# Protocol: Further studies were conducted using a dosing regime of once a week for six months administered subcutaneously. Three and six months old 3×Tg-AD and age-matched non-Tg mice were chosen for the experiments, since AD pathology (Aβ) starts development at 3-month and abundant accumulation at 6-months. Allopregnanolone was subcutaneously (s.c.) administrated with 10 mg/kg once per week for 6 months. For neurogenesis and neurosurvival study, BrdU, IdU and CIdU were intraperitoneal (i.p.) injected at the first 5 days, mid 5 days and 5 days before sacrifice during 6-month treatment. After 6 months of allopregnanolone treatment, mice, at 9- and 12-month old, were sacrificed.
# Immunofluorescent staining shown the immunoreactivity increased in CA1, entorhinal cortex, and primary somatosensory cortex.
# hippocampal neurons = assay: Expression of cell proliferating markers Ki-67 and cdc2 in hippocampal neurons; type: cell-based, rat
# Source text: Expression of cell cycle proteins have been successfully used to evaluate cellular proliferation. One such protein is the nuclear proliferation protein, Ki-67, which is expressed during the G1, S, G2, and M phases of the cell cycle, but is not expressed during the Go (resting) phase. Because Ki-67 antigen has a short half-life, it can be used as a marker of actively proliferating cells. Another cell cycle protein is cell division control protein 2 (cdc2) which is a cyclin dependent kinase (also called CDK1) which plays a crucial role in the G1/S and G2/M phase. If THP induces neuronal proliferation, cell proliferation markers should be elevated.
# Hippocampal neurons were treated with THP at a concentration of 250 nM for 72 hours and immunostained with antibodies for the nuclear proliferation marker, ki-67 antigen, which appears yellow. […] The cell cycle protein cdc2 is also observed in a dose dependent fashion (see FIG. 4).
# For this experiment, neurons were collected following 24 hrs of THP exposure. Forty μg protein of the total cell lysate was loaded and separated by 12% SDS-gel using antibody (Ahcom) specifically against cdc2- and analyzed using Un-Scan-It image software (Ilk Scientific Corp.).
# [3] = 3×Tg-AD mice, once a week for 6 months
compound,measurement,setting,value
"CC(=O)[C@H]1CC[C@H]2[C@@H]3CC[C@H]4C[C@H](O)CC[C@]4(C)[C@H]3CC[C@]12C [THP, 3α-hydroxy-5α-pregnan-20-one]",increase in BrdU-positive cells relative to untreated group,SVZ from 3×TgAD mice,58%
same,increase in BrdU incorporation vs vehicle control group,"[1]; 3×TgAD mice, 3 months, 10 mg/kg BW s.c., 24 hours",55+18%
same,cell proliferation (normal BrdU+ cells),"[1]; 3×TgAD mice, 6, 9, 12 months",no significant effect in cell proliferation
same,pyknotic BrdU+ cell count after THP treatment,[1]; 3×TgAD mice,48.0±48.00
same,neurogenic deficit of 3×TgAD mice vs non-Tg (total BrdU cells),"[1]; 3×TgAD mice, one s.c. dose, 24 hours",restored proliferation to that of normal nontransgenic mice; also recorded: reversed the neurogenic deficit of the 3×TgAD mouse SGZ and restored normal levels of neurogenesis
same,"pyknotic cell population, vehicle vs THP","[1]; non-Tg and 3×TgAD mice, 9- and 12-months",no difference
same,cell proliferation (normal BrdU+ cells),"[1]; non-Tg mice, 6, 9, 12 months",no effect on cell proliferation
same,pyknotic BrdU+ cell count after THP treatment,[1]; non-Tg mice,576.0±185.49
same,efficacy as neurogenic factor compared with bFGF+heparin,[2],exceeded that of bFGF+heparin
same,proliferative efficacy compared with positive control bFGF,[2]; 250 nM THP,"as efficacious a proliferative factor as the positive control, bFGF"
same,concentration at which proliferation was first evident,[2]; dose response,1 nM
same,concentration at which proliferative efficacy diminished,[2]; dose response,1000 nM
same,concentration of maximal proliferation,"[2]; dose response, sustained at 250 and 500 nM",100 nM
same,increase in human neural progenitor cell proliferation,[2]; doses within an achievable therapeutic range,50%
same,number of BrdU positive hNPCs vs vehicle,[2]; double labeling,significantly increased
same,"proportion of Tuj1, MAP2 or GFAP cells vs vehicle",[2]; double labeling,not changing
same,time at which hNPC proliferation reached maximum,[2]; time course,6 h
same,time at which hNPC proliferation was evident,[2]; time course,3 h
same,immunoreactivity of phosphorylated tau,phosphorylated tau; 10 mg/kg once a week for six months,decreases the immunoreactivity of phosphorylated tau
same,"AT8 immunoreactivity, immunoblotting",phosphorylated tau; [3],did not show a significantly reduction of AT8 immunoreactivity
same,AT8 immunostaining,phosphorylated tau; [3],"lower levels of immunoreactivity in THP-treated hippocampal CA1, cortex and amygdala"
same,"CNPase expression, Western blot",CNPase; 9-month nonTg mice and 3×TgAD mice,increased CNPase expression
same,"CNPase expression, Western blot",CNPase; 12-month 3×TgAD mice,trended towards an increase
same,"CNPase expression, Western blot",CNPase; 12-month non-Tg mice,no significant difference
same,expression of nuclear proliferation marker Ki-67,"hippocampal neurons; 250 nM, 72 hours, immunostaining",induces the expression of the nuclear proliferation marker Ki-67
same,expression of cdc2,"hippocampal neurons; 250 or 500 nM, 24 hrs, Western blot",increases expression of cell division control protein 2 (cdc2)
